Data reported in patent US12076307B2, “Compositions for prevention or treatment of acute radiation syndrome and other radiation exposure” (priority 2017, dated 2024).

Experiments:
[1] = In vitro metabolic stability / metabolite screening, human liver microsomes; assay type: in vitro ADME; details: for Mean Peak Area in LC-RID: Human, N=2
Method: [^14C]EC-18 or the positive control (7-ethoxycoumarin; 7-EC) reacted with microsomes prepared from hepatocytes of rats, dogs, monkeys, and humans, with or without cofactors, for 60 and 120 min. Then, the residual EC-18 concentration over time was measured by LC-RID ([^14C]EC-18) or LC-MS/MS (7-EC) (FIG. 63 and FIG. 64).
Each test system was designed to examine phase 1 metabolic reaction (test system A), phase 2 metabolic reaction (test system B), and non-enzymatic degradation.
The LC-RID chromatographic profiles of radioactive metabolites produced in the 2-hr incubation reaction mixtures of the same test systems A, B, and C used to assess the metabolic and non-metabolic elimination rates of EC-18 were compared to the LC-UV chromatographic profiles of the synthetic reference material. […] The relative radioactivity of EC-18 accounted for 42-67% of total radioactivity. […]. The peaks of M4 and M6 were determined in monkeys and humans. M1 was abundantly detected in all species, but it was assumed to be a peak of early elution. The LC-UV chromatograms of reaction mixtures in each test system (FIGS. 65A-65C) and the relative radioactivity of the screened metabolites are shown in Table 25.

[2] = tested on: C57BL/6J mice, 680 cGy TBI; assay: 30-day survival in C57BL/6J mice after LD70/30 (680 cGy) TBI; assay type: in vivo, mouse; details: for Dead/Moribund, Females (percent) / Dead/Moribund, Males (percent): N=24; for Dead/Moribund, All Animals (percent): N=48
Method: The objective of this study was to evaluate the 30-day survival benefit of EC-18 in male and female C57BL/6J mice when administered by daily oral gavage at doses ranging from 100-375 mg/kg/day, for 30 consecutive days beginning approximately 24 hrs after a single LD70/30 dose (680 cGy) of TBI. The study had 4 dose groups, each with 24 animals of each sex, Group 1 animals were administered sterile PBS, Groups 2, 3, and 4 were administered EC-18 at 100, 250, and 375 mg/kg/day, respectively. Dose volumes were determined using the most recently recorded body weight. Survival was monitored for 30 days post irradiation, with early removal criterion used to determine morbidity. Clinical observations were recorded daily before administration of vehicle or test article. […] Body weights were recorded minimally 3 times per week, daily for animals with weight loss of ≥15%, or twice daily for animals with ≥20% weight loss.

[3] = tested on: BALB/c mice, 6.11 Gy γ-radiation TBI; assay: Hematopoietic ARS (H-ARS) CBC time course, 6.11 Gy; assay type: in vivo, mouse
Method: For the time course analysis of hematopoietic ARS (H-ARS), female mice were grouped 5 per treatment cohorts; γ-radiation only cohort (positive control) and γ-radiation with EC-18 250 mg/kg cohort. For the analysis of dose effect of EC-18 administration on H-ARS, mice were grouped 8 (5 males and 3 females) per treatment cohorts; γ-radiation only cohort (positive control), γ-radiation with EC-18 50 mg/kg cohort, γ-radiation with EC-18 100 mg/kg cohort, γ-radiation with EC-18 250 mg/kg cohort and γ-radiation with EC-18 100 mg/kg cohort. The whole blood was collected from the orbital sinuses using EDTA-free capillary tubes (Kimble Chase Life Science and Research Products LLC, FL, USA) and collection tubes containing K3E-K3EDTA (Greiner Bio-One International, Kremsmunster, Austria).
The therapeutic effect of EC-18 administration on H-ARS was then evaluated. […] Groups of BALB/c mice (n=5, female for FIG. 32A through FIG. 32E and n=8, 5 male, 3 female for FIG. 32F through FIG. 32J) were exposed to 6.11Gy of γ-radiation and various doses of EC-18 were orally administered once daily to day 15, or remained untreated. FIGS. 32A through 32E show the time course of the white blood cell count (WBC; FIG. 32A), absolute Neutrophil count (ANC; FIG. 32B), absolute Lymphocyte count (ALC; FIG. 32C), platelet count (PLT; FIG. 32D) and red blood cell count (RBC; FIG. 32E) over 15 days, respectively. FIG. 32F through FIG. 32J show the dose effect of EC-18 administration on WBC (FIG. 32F), ANC (FIG. 32G), ALC (FIG. 32H), PLT (FIG. 32I) and BRC (FIG. 32J) on day 15, respectively. ns; not significant,* p<0.05, **p<0.01, *** p<0.005.

Balb/c mice, TBI = assay: Estimation of dose reduction factor (DRF); assay type: in vivo, mouse
Method: Analysis of several TBI, 24-hr delayed administration of EC-18 at 250 mg/kg in Balb/c mice yields an estimate of the dose reduction factor (DRF) of EC-18.

[4] = EC-18 250 mg/kg daily, n=5 female

SMILES: CCCCC/C=C\C/C=C\CCCCCCCC(=O)OC(COC(C)=O)COC(=O)CCCCCCCCCCCCCCC (stereo not shown) [EC-18, 1-palmitoyl-2-linoleoyl-3-acetylglycerol]
- elimination rate ([1]; 1-hr reaction, test system A (Phase 1 metabolic reaction)): 21.2%
- elimination rate ([1]; 1-hr reaction, test system B (Phase 2 metabolic reaction)): 25.5%
- elimination rate ([1]; 1-hr reaction, test system C (non-enzymatic degradation)): 26.5%
- elimination rate ([1]; 2-hr reaction, test system A): 32.8%
- elimination rate ([1]; 2-hr reaction, test system B): 35.4%
- elimination rate ([1]; 2-hr reaction, test system C): 32.6%
- Mean Peak Area in LC-RID ([1]; A (NADPH added), [14C]EC-18 2 hrs): 67.2%
- Mean Peak Area in LC-RID ([1]; B (NADPH, PAPS, UDPGA added), 2 hrs): 64.6%
- Mean Peak Area in LC-RID ([1]; C (no cofactor added), 2 hrs): 67.4%
- combined sex survival ([2]; Group 2, 100 mg/kg/day): 21%
- increased survival above vehicle control, females ([2]; Group 2, 100 mg/kg/day): 29%
- survival, males ([2]; Group 2-4 (100-375 mg/kg/day)): 0-8%
- combined sex survival ([2]; Group 3, 250 mg/kg/day): 25%
- increased survival above vehicle control, females ([2]; Group 3, 250 mg/kg/day): 46%
- combined sex survival ([2]; Group 4, 375 mg/kg/day): 29%
- increased survival above vehicle control, females ([2]; Group 4, 375 mg/kg/day): 46%
- Dead/Moribund, Females (percent) ([2]; Grp 2: 100 mg/kg): 16 (67%)
- Dead/Moribund, Males (percent) ([2]; Grp 2: 100 mg/kg): 22 (92%)
- Dead/Moribund, All Animals (percent) ([2]; Grp 2: 100 mg/kg): 38 (79%)
- Dead/Moribund, Females (percent) ([2]; Grp 3: 250 mg/kg): 12 (50%)
- Dead/Moribund, Males (percent) ([2]; Grp 3: 250 mg/kg): 24 (100%)
- Dead/Moribund, All Animals (percent) ([2]; Grp 3: 250 mg/kg): 36 (75%)
- Dead/Moribund, Females (percent) ([2]; Grp 4: 375 mg/kg): 12 (50%)
- Dead/Moribund, Males (percent) ([2]; Grp 4: 375 mg/kg): 22 (92%)
- Dead/Moribund, All Animals (percent) ([2]; Grp 4: 375 mg/kg): 34 (71%)
- mean body weights vs vehicle ([2]; any study day): no statistically significant differences
- duration of severe neutropenia [3, 4]: 7.2 ± 1.79 days
- mean first day of neutropenia (ANC<500 cells/μL) [3, 4]: 2.2 ± 1.09 days
- mean nadir of ANC [3, 4]: 20.0±10.00 cells/μL
- reduction of PLT and RBC induced by a single TBI ([3]; oral once daily to day 15): attenuated
- γ-radiation-induced depletion of WBC, ANC and ALC ([3]; oral once daily to day 15): significantly attenuated
- DRF at LD30/30 (Balb/c mice, TBI; 250 mg/kg): 1.45
- DRF at LD70/30 (Balb/c mice, TBI; 250 mg/kg): 1.18
- DRF at LD95/30 (Balb/c mice, TBI; 250 mg/kg): 1.05
- LD Estimate LD30/30, Presence of EC-18 (Balb/c mice, TBI; 250 mg/kg): 5.26 Gy
- LD Estimate LD50/30, Presence of EC-18 (Balb/c mice, TBI; 250 mg/kg): 5.50 Gy
- LD Estimate LD70/30, Presence of EC-18 (Balb/c mice, TBI; 250 mg/kg): 5.76 Gy
- LD Estimate LD95/30, Presence of EC-18 (Balb/c mice, TBI; 250 mg/kg): 6.09 Gy
- Lethality, Presence of EC-18 (Balb/c mice, TBI; 6.11 Gy, 250 mg/kg 24-hr delayed): 6/40 (15%)
- Lethality, Presence of EC-18 (Balb/c mice, TBI; 6.5 Gy, 250 mg/kg 24-hr delayed): 8/20 (40%)
- Lethality, Presence of EC-18 (Balb/c mice, TBI; 7 Gy, 250 mg/kg): 10/10 (100%)
- Lethality, Presence of EC-18 (Balb/c mice, TBI; 8 Gy, 250 mg/kg): 10/10 (100%)
- Lethality, Presence of EC-18 (Balb/c mice, TBI; 10 Gy, 250 mg/kg): 4/4 (100%)
